In patent US9101671B2, “Methods and compositions related to clot binding compounds” (Sanford-Burnham Medical Research Institute, priority 2007, dated 2015):
Where no end group is shown, it is not given here.

How the values were obtained:
mouse plasma clots = assay: Nanoparticle binding to mouse plasma clots in vitro
Procedure: (§1) Phage binding to clotted plasma proteins was determined as described (Pilch 2006). CREKA-SPIO and control SPIO were added to freshly formed plasma clots in the presence or absence of free CREKA peptide. After 10 min incubation, the clots were washed 4 times in PBS, transferred to a new tube and digested in 100 μl concentrated nitric acid. The digested material was diluted in 2 ml distilled water and the iron concentration was determined using inductively coupled plasma-optical emission spectroscopy (ICP-OES, PerkinElmer, Norwalk, Conn.).

human plasma clots = assay: Nanoparticle binding to human plasma clots in vitro
Procedure: as §1

[1] = Nanoparticle clearance (plasma circulation half-life); type: in vivo, mice
[2] = tested on: MDA-MB-435 breast cancer xenografts; assay: Tumor homing and tissue distribution of intravenously injected particles (fluorescence microscopy); type: in vivo, mice
Procedure: CREKA-SPIO particles were intravenously injected (4 mg Fe/kg) into Balb/c nude mice bearing MDA-MB-435 human breast cancer xenograft tumors measuring 1-1.5 cm in diameter. The mice were sacrificed by perfusion 5-6 hours later and tissues were examined for CREKA-SPIO fluorescence (green). Nuclei were stained with DAPI (blue). (A) Distribution of CREKA-SPIO in tissues from MDA-MB-435 tumor mice that received 2 hours earlier an injection of PBS (A, upper panels) or Ni/DSPC/CHOL liposomes (Ni-liposomes) containing 0.2 μmol Ni in 200 μl of PBS (A, lower panels). (B) Plasma circulation half-life of CREKA-SPIO following different treatments. At least 4 time points were collected. Data were fitted to mono-exponential decay using Prizm software (GraphPad, San Diego, Calif.), and the half-life values were compared in unpaired t-test (***p<0.0001, n=10). (C) Accumulation of CREKA-SPIO nanoparticles in tumor vessels. Mice were injected and tissues collected as in panel A. Fluorescent intravascular CREKA-SPIO particles overlap with iron oxide viewed in transmitted light. Magnification: 600×. (D) Control organs of Ni-liposome/CREKA-SPIO-injected mice. Occasional spots of fluorescence are seen in the kidneys and lungs. […] Representative results from at least 3 independent experiments are shown. Magnification A and D, 200×; C, 600×.
For intravenous injections, the animals were anesthetized with intraperitoneal Avertin, and liposomes (2 μmol DSPC) and/or nanoparticles (1-4 mg Fe/kg body weight) were injected into the tail vein. The animals were sacrificed 5-24 h post-injection by cardiac perfusion with PBS under anesthesia, and organs were dissected and analyzed for particle homing. To suppress liver macrophages, mice were intravenously injected with liposomal clodronate suspension (100 μl per mouse), and the mice were used for experiments 24 hours later.

tumor vessels = assay: Nanoparticle-induced blood clotting in vessels (fibrin(ogen)/CD31 staining, microscopy); type: in vivo, mice
Procedure: (§2) Mice bearing MDA-MB-435 xenografts were injected with Ni-liposomes and CREKA-SPIO nanoparticles as described in the legend to FIG. 2. The mice were perfused 6 hours after the nanoparticle injection and tissues were collected. (A) Upper panels: Co-localization of nanoparticle fluorescence with CD31 staining in blood vessels; Middle panels: Co-localization of nanoparticle fluorescence and anti-fibrin(ogen) staining in tumor blood vessels. Inset—an image showing CREKA-SPIO distributed along fibrils in a tumor blood vessel; Lower panels: Lack of co-localization of nanoparticle fluorescence with anti-CD41 staining for platelets. (B) Intravital confocal microscopy of tumors using DiI-stained red blood cells as a marker of blood flow. The arrow points to a vessel in which stationary erythrocytes indicate obstruction of blood flow. Blood flow in the vessel above is not obstructed. Six successive frames from a 1-min movie (Movie 2 in Supplementary Material) are shown. (C) CREKA-coated liposomes co-localize with fibrin in tumor vessels. The results are representative of 3 independent experiments. Magnification: A and C, 600×, B, 200×.
(§3) Mice bearing MDA-MB-435 human breast cancer xenografts were intravenously injected with PBS or a bolus of 800 U/kg of heparin followed 120 min later by Ni-liposomes (or PBS) and CREKA-SPIO (or control nanoparticles). The mice received additional heparin by intraperitoneal injections (a total of 1000 U/kg) or PBS throughout the experiment. (A) Tumors were removed 6 hours after the nanoparticle injection, and magnetic signal in the tumor after different treatments was determined with SQUID. Aminated dextran SPIO served as a particle control (control SPIO). […] The magnetization values were normalized to dry weight of the tissue. Results from 3 experiments are shown. (B) Quantification of heparin effect on clotting in blood vessels. Mice were pretreated with PBS (white bars) or heparin (black bars) as described above, followed by Ni liposomes/CREKA-SPIO nanoparticles. Three sections from two tumors representing each treatment were stained with anti-CD31 for blood vessels, and the percentage of vessels positive for fluorescence and fluorescent clots was determined. […] (C) A representative example of the appearance of CREKA-SPIO particles in tumor vessels of mice treated with heparin. (D) Near-infrared imaging of mice that received Ni-liposomes followed by Cy7-labeled CREKA-SPIO with or without heparin pretreatment. The images were acquired 8 hours after the injection of the CREKA-SPIO particles using an Odyssey 2 NIR scanner (Li-COR Biosciences, Lincoln, Nebr.). The images shown are composites of 2 colors, red (700 nm channel, body and chow autofluorescence) and green (800 nm channel, Cy7). Arrows point to the tumors, arrowheads to the liver. Note the strong decrease in signal from the tumor in the heparin-pretreated mouse. A representative experiment out of 3 is shown.
The low magnification (40×) was used to produce these images because only blood vessels in which clotting had concentrated the CREKA-SPIO fluorescence are visible at this magnification. […]
For intravenous injections, the animals were anesthetized with intraperitoneal Avertin, and liposomes (2 μmol DSPC) and/or nanoparticles (1-4 mg Fe/kg body weight) were injected into the tail vein. The animals were sacrificed 5-24 h post-injection by cardiac perfusion with PBS under anesthesia, and organs were dissected and analyzed for particle homing. […]

platelets = assay: Role of platelets in nanoparticle homing; type: in vivo, mice; details: platelet depletion with anti-CD41 monoclonal antibody
Procedure: (A). Blood was drawn 5 min post-injection of 4 mg/kg of CREKA-SPIO into mice and a 50 μl aliquot was run through a magnetic column. Bound CREKA-SPIO particles were eluted form the column, concentrated on a slide, and stained with anti-CD41 antibody. Some of the particles appear to be associated with platelets. (B). A low-magnification image (40×) showing CREKA-SPIO homing and clot formation in a tumor from a platelet-depleted mouse. Platelet depletion was accomplished by treating mice with 0.1 mg of an anti-CD41 monoclonal antibody as described (Van der Heyde and Gramaglia (2005)). The mice subsequently received Ni-liposomes/CREKA-SPIO as described in the legend of FIG. 2.

tumor blood vessels = assay: Intravital confocal microscopy of tumor blood flow; type: in vivo, mice; details: 4 mg/kg i.v.; Ni-liposome pre-injection; DiI-labeled erythrocytes as flow marker
Procedure: as §2
Tumor blood flow in MDA-MB 435 xenograft-bearing mice was observed by intravital microscopy. Mice were pre-injected with Ni-liposomes and 5×10^8 of DiI-labeled erythrocytes. […] Movies were recorded at 10 min intervals up to 120 min post-injection.

[3] = tested on: MDA-MB-435 human breast cancer xenografts; assay: Tumor magnetization by SQUID magnetometer; type: in vivo, mice
Procedure: as §3, with “The images were acquired 8 hours after the injection of the CREKA-SPIO particles using an Odyssey 2 NIR scanner (Li-COR Biosciences, Lincoln, Nebr.). The images shown are composites of 2 colors, red (700 nm channel, body and chow autofluorescence) and green (800 nm channel, Cy7). Arrows point to the tumors, arrowheads to the liver. Note the strong decrease in signal from the tumor in the heparin-pretreated mouse. A representative experiment out of 3 is shown.” left out

[4] = plain liposomes as decoy particles, injected before
[5] = after Ni-liposome pre-treatment
[6] = intravenous injection, no decoy pretreatment

CREKA-SPIO: Fluorescein-labeled CREKA coupled onto 50 nm superparamagnetic, amino dextran-coated iron oxide nanoparticles; at least 8,000 peptide molecules per particle (Fluorescein-CREKA; not fully specified; printed as fluorescein-CREKA; also: coupled to amino dextran-coated iron oxide nanoparticle)
binding to plasma clots (mouse plasma clots): bound to mouse and human plasma clots | binding to plasma clots (human plasma clots): bound to mouse and human plasma clots | prolongation in particle half-life ([1]; RES macrophages in the liver depleted with liposomal clodronate): ~5 fold | blood half-life [1, 4]: prolonged the blood half-life | prolongation of half-life in the blood ([1]; pretreatment with intravenously injected Ni-liposomes): about 5 factor | tumor homing ([2]; Ni-liposome pretreatment 5 min or 48 h prior to injection): greatly increased the tumor homing | accumulation in the spleen [2, 5]: unchanged or even enhanced | particles in the liver [2, 5]: Fewer particles | accumulation in tumor [2, 6]: did not accumulate effectively | particles in reticuloendothelial system (RES) tissues [2, 6]: high concentration of particles | tumor homing [2, 4]: prolonged the blood half-life and tumor homing | particles in other organs ([2]; whether Ni-liposomes were used or not): minor amounts of CREKA-SPIO particles or no particles at all | tumor vessel lumens filled with fluorescent masses (occlusion) (tumor vessels; after liposome pretreatment): up to 20% | intravascular clotting, effect of heparin (tumor vessels; heparin pretreatment): essentially eliminated the intravascular clotting | number of vessels with nanoparticles bound to the vessel walls, effect of heparin (tumor vessels; heparin pretreatment): did not significantly reduce | colocalization of fibrin(ogen) staining and particle fluorescence in liver vessels (tumor vessels; liver): no colocalization | clotting in kidneys and lungs (non-RES tissues) (tumor vessels; low magnification images): no clotting in these tissues, with the exception of very rare clots in the kidneys | effect of thrombocytopenia on homing to MDA-MB-435 tumors (platelets): no noticeable effect | clot formation and blood flow in tumor blood vessels (tumor blood vessels): time-dependent clot formation and obstruction of blood flow | greater accumulation in tumor, Ni-liposome-pretreated compared to PBS-pretreated mice ([3]; SQUID and fluorescence signal, tumors removed 6 hours after injection): about 6 fold | reduction of tumor accumulation of nanoparticles by heparin ([3]; heparin injected prior to CREKA-SPIO, SQUID): more than 50%
